From patent US20250179024A1, “AMYLOID AND ASSOCIATED PATHOLOGY MODULATORS AND METHODS THEREOF” (Jawaharlal Nehru Centre for Advanced Scientific Research, priority 2022, published 2025)

Columns and labels:
Type in all cases: cell-based
SH-SY5Y cells [1] = experiment: Cell rescue from Zn (II)-dependent Aβ toxicity (MTT); details: Aβ 10 μM, Zn (II) 20 μM, NMIs 20 μM, 30 h; without compound ~61%
Protocol: Cell rescue from Aβ toxicity by NMIs were assessed in SH-SY5Y cells. The cells were seeded into 96 well plate at cell density of 25,000 cells per well and after 24 h the media was replaced with DMEM-F12 with low serum (2.5% FBS). After 6 h, cells were treated with Aβ (10 μM) alone and with NMIs (20 μM) in low serum media. Different concentrations of compound (10, 20 and 50 μM) were used to treat cells. For metal dependent studies, Aβ (10 μM) with metals (20 μM) in the absence and presence of NMIs (20 μM) was treated. The cells were incubated for 30 h and MTT assay was performed to calculate the percentage cell viability.
Further, the effect of concentration of compounds of the present disclosure on the cell rescue was assessed. […] The ability of NMIs to rescue cells from metal-dependent Aβ toxicity were assessed in the presence of Cu (II) and Zn (II). Cells were treated with Aβ (10 μM) along with metal ions (20 μM) and NMIs (20 μM) for 30 h. Aβ in the presence of Cu (II) reduced cell viability to ˜62% and M3 treatment had rescued cells with viability to 85% (FIG. 12C). Aβ with Zn (II) viability reduced to ˜61% and M3 treatment rescued cells by improving the viability to ˜79% (FIG. 12D). […] These in-cellulo experiments confirmed the ability of M3 to effectively rescue neuronal cells from metal-independent and dependent Aβ toxicity.

SH-SY5Y cells [2] = experiment: Mitochondrial ROS measurement, MitoSOX; details: Aβ 40 μM, 8 h, Aβ alone 1.76 fold
Protocol: For quantifying mitochondrial ROS levels, SH-SY5Y cells were seeded into 96 well plates and incubated. After 24 h cells were treated with Aβ (20 μM) alone and with two different concentrations of NMIs (M3) (20 and 50 μM) for 8 h and stained with MitoSox Red (5 μM) in PBS for 15 min followed by a wash with PBS thrice. Then quickly fluorescence was measured (λex=510 nm and λem=580 nm) by Spectramax multi-well plate reader in well scan mode (>80 points, with 6 flashes per read). The relative fluorescence was used to assess ROS levels with respect to control. For ROS imaging, cells were seeded onto glass bottom dishes and incubated for 24 h. Cells were treated with Aβ (20 μM) and with NMIs (M3) (50 μM) in low serum media for 8 h. Then the cells were washed with PBS and stained with MitoSOX (5 μM) prepared in PBS and incubated. After 15 min, wash thrice with PBS and imaged in live cell set up in rhodamine channel using 63× oil immersion using Leica DMi8 fluorescence microscope.
Changes in MMP were visualized by treating the cells with Aβ (20 μM) alone and with M3 (50 μM) for 18 h followed by staining with MitoOrange. […] The ability of M3 to modulate Aβ-induced ROS levels in mitochondria was evaluated by the MitoSOX probe. The cells were treated with Aβ (40 μM) alone and with two concentrations of M3 for 8 h followed by treatment with MitoSOX to measure the relative ROS levels. […]

TNFα = experiment: Western blot of TNFα in C6 microglia; details: LPS 500 ng/mL, Aβ 5 μM, compound 10 μM; Aβ alone 2.35 fold
Protocol: Western blot analysis was performed to analyse the changes in the protein levels from cell lysates. SH-SY5Y and C6 cells were cultured to 80% confluence in T25 flask, trypsinised and seed into 12 well plate. The cells were cultured for 30 h and then treated with LPS (500 ng/mL) in low serum media for 6 h. Then the cells were treated with Aβ42 (5 μM) alone and with NMIs (M3) (10 μM) for 18 h. The cells were harvested by trypsinisation and the protein was extracted in RIPA lysis buffer with protease inhibitor cocktail (1×). Briefly cells were washed with dPBS and lysed in […] of RIPA lysis buffer with gentle shaking in 4° C. for 30 min. Then the cells were centrifuged at 16000 g for 20 min and the supernatant containing protein was collected and quantified by Bradford assay. The protein lysate was subjected to SDS-PAGE (12% resolving gel) and transferred to PVDF membrane. The blot paper was blocked with 5% skim milk powder for 1 h at room temperature and then washed thrice with TBST. The blots were incubated with primary antibodies for 20 h at 4° C. The blots were washed thrice with TBST for 5 min and then incubated with anti-rabbit HRP-conjugated secondary antibodies for 1 h at room temperature. […] All the western blots were quantified by using ImageJ, data was plotted and analysed by GraphPad prism5. […]

SH-SY5Y cells [3] = experiment: Mitochondrial membrane potential (MMP) measurement, Mitotracker Orange; details: Aβ 20 μM, 18 h; for MMP relative to control (100%): Aβ alone 70%
Protocol: For quantifying relative change in MMP, SH-SY5Y cells were seeded into 96 plates and incubated. After 24 h, cells were treated with Aβ (20 μM) alone and with two different concentrations of NMIs (M3) (20 and 50 μM) for 18 h and stained with Mitotracker Orange (500 nM) in media for 15 min followed by washing with PBS twice. Then quickly fluorescence was measured (λex=554 nm and λem=576 nm) by Spectramax multi-well plate reader in well scan mode (>80 points, with 6 flashes per read) and averaged the value. The relative fluorescence of treatments in comparison with control was calculated to assess the change in MMP.
For fluorescence imaging, cells were seeded into glass bottom dishes and incubated for 24 h. Then treated with Aβ (20 μM) alone and with NMIs (M3) (50 μM) in low serum media for 18 h and stained with Mitotracker Orange (500 nM) in media for 15 min. Cells were washed with PBS thrice and imaged in live cell set up in Rhodamine channel using 63× oil immersion using Leica DMi8 fluorescence microscope.
The compound M3 with aggregation modulation and antioxidant activity potentially prevent Aβ mediated mitochondrial damage. Quantitatively measurement of mitochondrial membrane potential (MMP) changes was carried out. SH-SY5Y cells were cultured in 96 well plate, treated with Aβ (20 μM) alone and with different concentrations of M3 (20 μM and 50 μM) for 18 h and relative MMP was measured using MitoOrange fluorescence, a MMP-dependent mitochondrial probe. MMP of Aβ treated cells dropped to 70% compared to control (100%) reflecting the functional damage to mitochondria. Upon treatment with M3 at two concentrations 20 μM and 50 µM, MMP was improved to 88% and 93%, respectively, which indicated prevention of mitochondrial damage (FIG. 14A).
Changes in MMP were visualized by treating the cells with Aβ (20 μM) alone and with M3 (50 μM) for 18 h followed by staining with MitoOrange. […] The ability of M3 to modulate Aβ-induced ROS levels in mitochondria was evaluated by the MitoSOX probe. […]

SMILES: O=C1c2cccc3c(N(Cc4ccccn4)Cc4ccccn4)ccc(c23)C(=O)N1CCc1ccc(O)c(O)c1 [M3, 6-(bis(pyridin-2-ylmethyl)amino)-2-(3,4-dihydroxyphenethyl)-1H-benzo[de]isoquinoline-1,3(2H)-dione]
- cell viability (SH-SY5Y cells [1]): ~79%
- mitochondrial ROS levels compared to control cells (SH-SY5Y cells [2]; compound 20 μM): 1.6 fold
- mitochondrial ROS levels compared to control cells (SH-SY5Y cells [2]; compound 50 μM): 1.25 fold
- TNFα level in comparison to control (TNFα): 1.47 fold
- MMP relative to control (100%) (SH-SY5Y cells [3]; compound 20 μM): 88%
- MMP by fluorescence imaging (SH-SY5Y cells [3]; compound 50 μM): least affected
- MMP relative to control (100%) (SH-SY5Y cells [3]; compound 50 µM): 93%
